Results reported in ChEMBL document CHEMBL1131530, “Synthesis and biological activities of tricyclic conformationally restricted tetrahydropyrido annulated furo[2,3-d]pyrimidines as inhibitors of dihydrofolate reductases” (J Med Chem, 1998).

Columns and labels:
Dihydrofolate reductase [1] = target: T1, Dihydrofolate reductase (Mycobacterium avium, UniProt O30463); experiment: Inhibitory concentration was evaluated against […] Dihydrofolate reductase enzyme in Mycobacterium avium.
T1 sequence (O30463 whole entry): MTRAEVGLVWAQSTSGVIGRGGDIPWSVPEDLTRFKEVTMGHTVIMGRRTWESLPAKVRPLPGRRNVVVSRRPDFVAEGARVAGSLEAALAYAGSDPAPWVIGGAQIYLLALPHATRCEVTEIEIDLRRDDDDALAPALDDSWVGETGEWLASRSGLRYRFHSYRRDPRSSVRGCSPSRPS

[2] = Selectivity for dihydrofolate reductase enzyme in rat liver Toxoplasma gondii
[3] = Selectivity for dihydrofolate reductase enzyme in rat liver and Pneumocystis carinii
Dihydrofolate reductase [4] = target: T2, Dihydrofolate reductase (Pneumocystis carinii, UniProt P16184)
T2 sequence (P16184 whole entry): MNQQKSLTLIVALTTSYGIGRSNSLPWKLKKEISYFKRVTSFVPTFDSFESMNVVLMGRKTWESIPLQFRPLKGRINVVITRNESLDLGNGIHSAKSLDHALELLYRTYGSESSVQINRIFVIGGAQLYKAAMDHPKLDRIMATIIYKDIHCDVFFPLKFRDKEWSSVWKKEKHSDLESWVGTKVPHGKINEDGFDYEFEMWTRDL
Description: Inhibition of Pneumocystis carinii dihydrofolate reductase

[5] = target: T3, Bifunctional dihydrofolate reductase-thymidylate synthase (Toxoplasma gondii, UniProt Q07422)
T3 sequence (Q07422 whole entry): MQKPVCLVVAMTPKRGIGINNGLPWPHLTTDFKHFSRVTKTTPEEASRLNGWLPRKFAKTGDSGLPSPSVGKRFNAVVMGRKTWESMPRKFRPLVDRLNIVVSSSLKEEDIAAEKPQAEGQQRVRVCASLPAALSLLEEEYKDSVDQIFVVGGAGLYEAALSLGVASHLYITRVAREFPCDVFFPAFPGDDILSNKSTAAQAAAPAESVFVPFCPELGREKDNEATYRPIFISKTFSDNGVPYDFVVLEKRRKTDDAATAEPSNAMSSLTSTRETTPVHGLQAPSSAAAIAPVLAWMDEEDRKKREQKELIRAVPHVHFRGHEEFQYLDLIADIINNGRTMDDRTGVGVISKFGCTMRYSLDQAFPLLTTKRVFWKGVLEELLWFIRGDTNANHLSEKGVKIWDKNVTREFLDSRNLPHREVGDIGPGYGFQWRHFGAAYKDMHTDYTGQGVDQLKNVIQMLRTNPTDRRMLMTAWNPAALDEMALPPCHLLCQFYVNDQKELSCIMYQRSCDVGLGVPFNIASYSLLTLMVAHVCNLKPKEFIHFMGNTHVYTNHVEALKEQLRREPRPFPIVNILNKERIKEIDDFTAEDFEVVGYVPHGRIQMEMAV
Description: Inhibition of Toxoplasma gondii Dihydrofolate reductase

Dihydrofolate reductase [6] = target: T4, Dihydrofolate reductase (Rattus norvegicus, UniProt Q920D2)
T4 sequence (Q920D2 whole entry): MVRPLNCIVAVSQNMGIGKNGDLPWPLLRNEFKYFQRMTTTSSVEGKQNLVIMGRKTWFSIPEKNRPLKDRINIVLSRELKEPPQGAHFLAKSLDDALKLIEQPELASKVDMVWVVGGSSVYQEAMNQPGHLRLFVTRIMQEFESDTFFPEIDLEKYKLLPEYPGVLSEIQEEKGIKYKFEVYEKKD
Description: Inhibition of Dihydrofolate reductase of rat liver

CCRF-CEM [7] = experiment: Growth inhibition was measured as for inhibition of growth in CCRF-CEM cells.; type: functional, cell-based; conditions: Homo sapiens
CCRF-CEM [8] = experiment: Growth inhibition was measured for inhibition of growth in CCRF-CEM sublines resistant to MTX solely as a result of decreased polyglutamation.; type: functional, cell-based; conditions: Homo sapiens
[9] = target: T5, Folylpolyglutamate synthase, mitochondrial (Homo sapiens) (UniProt Q05932); experiment: Activity of substrate for human FPGS was evaluated and compared to that of aminopterin (AMT)
T5 sequence (whole entry): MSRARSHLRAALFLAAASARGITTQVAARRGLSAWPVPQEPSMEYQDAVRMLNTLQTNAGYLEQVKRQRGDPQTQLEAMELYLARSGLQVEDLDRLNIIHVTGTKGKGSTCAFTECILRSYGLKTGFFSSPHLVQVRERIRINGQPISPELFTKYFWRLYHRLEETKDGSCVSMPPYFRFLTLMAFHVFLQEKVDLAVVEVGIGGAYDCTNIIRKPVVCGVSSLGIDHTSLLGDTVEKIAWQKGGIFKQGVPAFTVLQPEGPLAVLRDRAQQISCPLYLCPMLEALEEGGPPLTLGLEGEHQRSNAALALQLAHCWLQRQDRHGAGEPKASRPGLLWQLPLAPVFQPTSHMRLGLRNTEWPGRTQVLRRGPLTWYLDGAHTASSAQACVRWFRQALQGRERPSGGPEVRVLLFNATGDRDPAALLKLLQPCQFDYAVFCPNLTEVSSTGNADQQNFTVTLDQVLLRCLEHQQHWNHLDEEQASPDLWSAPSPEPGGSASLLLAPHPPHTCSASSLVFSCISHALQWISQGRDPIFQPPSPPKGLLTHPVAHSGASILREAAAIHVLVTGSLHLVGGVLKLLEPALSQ

Homo sapiens = species: Homo sapiens; experiment: Growth inhibition was measured for inhibition of growth in FaDu human squamous cell carcinoma of the head and neck.; type: functional
CCRF-CEM [10] = experiment: Growth inhibition was measured for inhibition of growth in CCRF-CEM subline resistant to MTX solely as a result of a 20-fold increase in wild-type DHFR protein and activity.; type: functional, cell-based; conditions: Homo sapiens
[11] = substrate: Nc1nc(N)c2c3c(oc2n1)CN(Cc1ccc(C(=O)N[C@@H](CCC(=O)O)C(=O)O)cc1)CC3; experiment: Binding affinity was evaluated on CCRF-CEM human leukemia cell folyl-poly-glutamate synthetase.; type: cell-based

Nc1nc(N)c2c3c(oc2n1)CN(Cc1ccc(Cl)cc1Cl)CC3
IC50 (Dihydrofolate reductase [1]): > 50 µM | Selectivity ratio [2]: 3.9 | Selectivity ratio [3]: 2.3 | IC50 (Dihydrofolate reductase [4]): 22.6 µM | IC50 [5]: 13.1 µM | IC50 (Dihydrofolate reductase [6]): 50.9 µM

Nc1nc(N)c2c3c(oc2n1)CN(Cc1ccc(Cl)c(Cl)c1)CC3
IC50 (Dihydrofolate reductase [1]): > 20 µM | Selectivity ratio [3]: 0.9 | IC50 (Dihydrofolate reductase [4]): 24.1 µM | IC50 [5]: 22.3 µM | IC50 (Dihydrofolate reductase [6]): 20.6 µM

Nc1nc(N)c2c3c(oc2n1)CN(Cc1ccccc1)CC3
IC50 (Dihydrofolate reductase [1]): > 15 µM | Selectivity ratio [2]: > 10 | IC50 (Dihydrofolate reductase [4]): > 9 µM | IC50 [5]: 1.4 µM | IC50 (Dihydrofolate reductase [6]): 15 µM

Nc1nc(N)c2c3c(oc2n1)CN(Cc1ccc(C(=O)N[C@@H](CCC(=O)O)C(=O)O)cc1)CC3
EC50 (CCRF-CEM [7]): 3.6 µM | EC50 (CCRF-CEM [8]): > 50 µM | IC50 (Dihydrofolate reductase [1]): 0.97 µM | Relative Vmax [9]: 0.29 | EC50 (Homo sapiens): > 100 µM | Selectivity ratio [2]: 4 | Selectivity ratio [3]: 7.9 | EC50 (CCRF-CEM [10]): 10.3 µM | IC50 [5]: 21.5 µM | IC50 (Dihydrofolate reductase [6]): 85.8 µM

Nc1nc(N)c2nc(CNc3ccc(C(=O)N[C@@H](CCC(=O)O)C(=O)O)cc3)cnc2n1
Relative Vmax [9]: 1

Nc1nc(N)c2c3c(oc2n1)CN(Cc1c(Cl)cccc1Cl)CC3
IC50 (Dihydrofolate reductase [1]): > 81.2 µM | Selectivity ratio [2]: 2.5 | Selectivity ratio [3]: 2 | IC50 (Dihydrofolate reductase [4]): 40.5 µM | IC50 [5]: 31.7 µM | IC50 (Dihydrofolate reductase [6]): 81.2 µM

COc1cc(CN2CCc3c(oc4nc(N)nc(N)c34)C2)cc(OC)c1
IC50 (Dihydrofolate reductase [1]): > 20 µM | IC50 (Dihydrofolate reductase [4]): > 22.8 µM | IC50 [5]: > 20.4 µM | IC50 (Dihydrofolate reductase [6]): 22.8 µM

CN(Cc1cnc2nc(N)nc(N)c2n1)c1ccc(C(=O)N[C@@H](CCC(=O)O)C(=O)O)cc1 [METHOTREXATE]
EC50 (Homo sapiens): 0.0172 µM

CN(Cc1coc2nc(N)nc(N)c12)c1ccc(C(=O)NC(CCC(=O)O)C(=O)O)cc1 (configuration not stated)
Selectivity ratio [2]: 0.021 | Selectivity ratio [3]: 12.2

Nc1nc(N)c2c(CNc3ccc(C(=O)NC(CCC(=O)O)C(=O)O)cc3)coc2n1 (configuration not stated)
Selectivity ratio [2]: 1.9 | Selectivity ratio [3]: 1.4

COc1cc(CN2CCc3c(oc4nc(N)nc(N)c34)C2)cc(OC)c1OC
IC50 (Dihydrofolate reductase [1]): 12.1 µM | IC50 (Dihydrofolate reductase [4]): > 35 µM | IC50 [5]: > 35 µM | IC50 (Dihydrofolate reductase [6]): > 35 µM

B1: Folylpolyglutamate synthase, mitochondrial (Homo sapiens), Q05932 (protein)
chain: T5 sequence (whole entry)
Km [11]: 6.2 µM
